The target in the assay is T1, VEGFR-3 (vascular endothelial growth factor receptor-3, Flt-4) (Homo sapiens, UniProt P35916).
T1 construct: gene FLT4
The assay can be described thus: cell-free kinase (autophosphorylation) assay; also HUVEC cellular VEGFR-3 phosphorylation, IC50 […]. The class given is biochemical.

T1 sequence (P35916 25-1363): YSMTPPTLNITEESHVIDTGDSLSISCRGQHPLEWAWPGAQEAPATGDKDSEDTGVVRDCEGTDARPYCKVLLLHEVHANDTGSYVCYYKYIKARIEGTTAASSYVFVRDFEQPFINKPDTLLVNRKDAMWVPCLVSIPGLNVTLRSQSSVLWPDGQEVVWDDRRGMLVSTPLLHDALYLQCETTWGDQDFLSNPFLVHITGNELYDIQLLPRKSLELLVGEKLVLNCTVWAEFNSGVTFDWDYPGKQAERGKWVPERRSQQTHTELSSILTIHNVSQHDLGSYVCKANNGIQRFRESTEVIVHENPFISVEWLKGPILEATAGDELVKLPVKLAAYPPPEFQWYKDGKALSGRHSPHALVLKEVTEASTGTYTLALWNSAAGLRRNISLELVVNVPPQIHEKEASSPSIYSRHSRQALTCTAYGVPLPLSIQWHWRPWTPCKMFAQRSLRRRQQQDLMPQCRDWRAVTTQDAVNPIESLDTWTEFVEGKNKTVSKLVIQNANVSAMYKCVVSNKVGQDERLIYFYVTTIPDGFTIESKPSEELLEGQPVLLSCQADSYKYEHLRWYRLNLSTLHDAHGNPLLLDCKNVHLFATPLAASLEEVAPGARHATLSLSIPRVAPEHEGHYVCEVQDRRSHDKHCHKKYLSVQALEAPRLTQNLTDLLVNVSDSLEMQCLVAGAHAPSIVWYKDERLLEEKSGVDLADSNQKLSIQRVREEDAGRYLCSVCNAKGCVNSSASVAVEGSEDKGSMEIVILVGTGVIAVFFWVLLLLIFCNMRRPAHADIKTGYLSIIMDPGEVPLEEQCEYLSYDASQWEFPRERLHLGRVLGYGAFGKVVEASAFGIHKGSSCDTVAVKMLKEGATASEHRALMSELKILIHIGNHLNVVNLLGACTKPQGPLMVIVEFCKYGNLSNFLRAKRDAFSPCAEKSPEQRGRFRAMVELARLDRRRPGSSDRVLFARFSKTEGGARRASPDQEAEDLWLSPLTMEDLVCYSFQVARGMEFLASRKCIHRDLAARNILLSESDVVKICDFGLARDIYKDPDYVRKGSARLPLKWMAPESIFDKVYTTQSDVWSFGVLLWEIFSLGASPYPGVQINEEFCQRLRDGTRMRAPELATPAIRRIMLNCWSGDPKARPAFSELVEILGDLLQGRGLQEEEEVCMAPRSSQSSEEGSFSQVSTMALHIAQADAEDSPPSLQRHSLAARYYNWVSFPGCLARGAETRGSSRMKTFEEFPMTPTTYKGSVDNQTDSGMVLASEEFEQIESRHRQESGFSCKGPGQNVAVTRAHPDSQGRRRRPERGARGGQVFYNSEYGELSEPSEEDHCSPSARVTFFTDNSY

For orientation: IC50 means the midpoint of a concentration-inhibition curve. Low values mean greater potency in that assay, high ones weaker potency in that assay. With `COc1cc2c(Oc3ccc(Nc4ccc(C(C)(C)C)cc4)cc3)ccnc2cc1OCCNCCO` [Ki23057], the IC50 came to 4.3 nM.

Source of the values: article PMC2768106, “Effects of VEGFR-3 phosphorylation inhibitor on lymph node metastasis in an orthotopic diffuse-type gastric carcinoma model” (British Journal of Cancer, 2009).
